Results taken from ChEMBL document CHEMBL6083276, “Pan-Transcriptional Enhanced Associated Domain Palmitoylation Pocket Covalent Inhibitor” (J Med Chem, 2024).
Blank lines part the entries; values can stand above or below the compound they belong to. The source made the active and inactive calls. The rule behind the calls is not given here.

What was measured:
[1] = Inhibition of palmitoylation site of TEAD (unknown origin) in human Hippo Pathway/TEAD Luciferase reporter MCF7 cells assessed as reduction in transcriptional activation by measuring luciferase activity incubated for 24 hrs by Promega One-Glo luciferase reagent based assay; format: cell-based, Hippo Pathway/TEAD Luciferase reporter MCF7 cell; conditions: MCF7, 24 h
[2] = Metabolic stability in mouse liver microsomes assessed as parent compound remaining measured after 15 mins by LC-MS/MS analysis; format: ADME, Microsome; conditions: read-out: Stability
[3] = Metabolic stability in mouse liver microsomes assessed as parent compound remaining measured after 30 mins by LC-MS/MS analysis; format: ADME, Microsome; conditions: read-out: Stability
[4] = Metabolic stability in human liver microsomes assessed as parent compound remaining measured after 15 mins by LC-MS/MS analysis; format: ADME, Microsome; conditions: read-out: Stability
[5] = tested on: NCI-H226; assay: Cytotoxicity against human NCI-H226 cells assessed as reduction in cell viability incubated for 144 hrs by CellTiter-Glo luciferase assay; format: functional, cell-based; conditions: NCI-H226, 144 h
[6] = Metabolic stability in human liver microsomes assessed as parent compound remaining measured after 30 mins by LC-MS/MS analysis; format: ADME, Microsome; conditions: read-out: Stability
[7] = Toxicity in mouse xenografted with human NCI-H226 cells assessed as body weight loss at 10 to 30 mg/kg, po administered for 28 days; format: organism-based; conditions: in vivo, 672 h, dose 10-30 mg/kg, time 28 day
[8] = tested on: HEK293; assay: Cytotoxicity against HEK293 cells assessed as reduction in cell viability at 0.1 to 1 uM incubated for 12 to 48 hrs; format: toxicity, cell-based; conditions: human, hek293, 1 µM; dose lower 0.1 µM, time lower 12 hrs, dose upper 1 µM, time upper 48 hrs
[9] = tested on: NCI-H226; assay: Antitumor activity against human NCI-H226 cells xenografted in mouse assessed as reduction in tumor size at 10 to 30 mg/kg, po measured upto 28 days; format: functional, organism-based; conditions: dose 10-30 mg/kg, time <= 28.0 day
[10] = Cmax in mouse at 10 mg/kg, po measured after 24 hrs by LC-MS/MS analysis; format: ADME, organism-based; conditions: in vivo
[11] = tested on: NCI-H226; assay: Inhibition of CTGF gene expression in human NCI-H226 cells at 300 nM incubated for 24 hrs by RT-qPCR analysis; format: functional, cell-based
[12] = (§1) Inhibition of CYR61 gene expression in human NCI-H226 cells at 30 nM incubated for 24 hrs by RT-qPCR analysis relative to control; format: functional
[13] = tested on: NCI-H226; assay: Cytotoxicity against human NCI-H226 cells assessed as reduction in cell viability at 0.1 to 1 uM incubated for 12 to 48 hrs; format: functional, cell-based; conditions: dose 0.1-1 µM, time 12-48 hrs
[14] = biological target: Transcriptional enhancer factor TEF-3 (Homo sapiens) (UniProt Q15561); assay: Inhibition of Myc-tagged TEAD4 (unknown origin) palmitoylation transfected in HEK293 cells at 300 nM incubated for 24 hrs by palmitoylation assay; format: cell-based
Sequence of Transcriptional enhancer factor TEF-3 (Homo sapiens) (Q15561 whole entry): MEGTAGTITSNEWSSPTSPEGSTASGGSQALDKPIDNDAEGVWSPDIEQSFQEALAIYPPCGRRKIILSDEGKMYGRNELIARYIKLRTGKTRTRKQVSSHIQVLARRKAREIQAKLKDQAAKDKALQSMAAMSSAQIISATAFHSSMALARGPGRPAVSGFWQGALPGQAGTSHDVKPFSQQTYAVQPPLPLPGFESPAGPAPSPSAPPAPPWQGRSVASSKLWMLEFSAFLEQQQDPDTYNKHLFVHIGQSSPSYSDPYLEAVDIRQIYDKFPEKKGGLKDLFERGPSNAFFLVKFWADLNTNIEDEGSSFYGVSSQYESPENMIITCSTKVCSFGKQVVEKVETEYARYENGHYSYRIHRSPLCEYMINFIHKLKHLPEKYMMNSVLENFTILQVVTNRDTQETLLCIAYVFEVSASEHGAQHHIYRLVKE

[15] = tested on: NCI-H226; assay: Inhibition of CTGF gene expression in human NCI-H226 cells incubated for 24 hrs by RT-qPCR analysis; format: functional, cell-based; conditions: dose 30-300 nM
[16] = Selectivity index, ratio of IC50 for human NCI-H28 cells to IC50 for human NCI-H226 cells
[17] = biological target: Transcriptional enhancer factor TEF-1 (Homo sapiens) (UniProt P28347); assay: Inhibition of Myc-tagged TEAD1 (unknown origin) palmitoylation transfected in HEK293 cells at 300 nM incubated for 24 hrs by palmitoylation assay; format: cell-based
Sequence of Transcriptional enhancer factor TEF-1 (Homo sapiens) (P28347 whole entry): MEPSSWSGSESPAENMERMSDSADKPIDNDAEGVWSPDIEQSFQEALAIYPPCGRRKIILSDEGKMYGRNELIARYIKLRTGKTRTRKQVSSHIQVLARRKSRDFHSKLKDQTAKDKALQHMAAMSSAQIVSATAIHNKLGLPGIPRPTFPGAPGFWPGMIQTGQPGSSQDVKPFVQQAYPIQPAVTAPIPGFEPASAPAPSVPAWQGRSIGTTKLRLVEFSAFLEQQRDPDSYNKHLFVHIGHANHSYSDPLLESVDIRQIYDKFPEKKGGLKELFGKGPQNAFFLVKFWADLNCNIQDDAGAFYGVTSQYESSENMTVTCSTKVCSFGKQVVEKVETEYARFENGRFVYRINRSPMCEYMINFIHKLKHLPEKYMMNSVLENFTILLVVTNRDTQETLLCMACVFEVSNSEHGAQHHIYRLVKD

[18] = AUClast in mouse at 10 mg/kg, po measured after 24 hrs by LC-MS/MS analysis; format: ADME, organism-based; conditions: in vivo
[19] = Half-life in mouse at 10 mg/kg, po measured after 24 hrs by LC-MS/MS analysis; format: ADME, organism-based; conditions: in vivo
[20] = Tmax in mouse at 10 mg/kg, po measured after 24 hrs by LC-MS/MS analysis; format: ADME, organism-based; conditions: in vivo
[21] = MRT in mouse at 10 mg/kg, po measured after 24 hrs by LC-MS/MS analysis; format: ADME, organism-based; conditions: in vivo
[22] = (§2) Inhibition of CTGF gene expression in human NCI-H226 cells at 30 nM incubated for 24 hrs by RT-qPCR analysis relative to control; format: functional
[23] = biological target: Transcriptional enhancer factor TEF-5 (Homo sapiens) (UniProt Q99594); assay: Inhibition of Myc-tagged TEAD3 (unknown origin) palmitoylation transfected in HEK293 cells at 300 nM incubated for 24 hrs by palmitoylation assay; format: cell-based
Sequence of Transcriptional enhancer factor TEF-5 (Homo sapiens) (Q99594 whole entry): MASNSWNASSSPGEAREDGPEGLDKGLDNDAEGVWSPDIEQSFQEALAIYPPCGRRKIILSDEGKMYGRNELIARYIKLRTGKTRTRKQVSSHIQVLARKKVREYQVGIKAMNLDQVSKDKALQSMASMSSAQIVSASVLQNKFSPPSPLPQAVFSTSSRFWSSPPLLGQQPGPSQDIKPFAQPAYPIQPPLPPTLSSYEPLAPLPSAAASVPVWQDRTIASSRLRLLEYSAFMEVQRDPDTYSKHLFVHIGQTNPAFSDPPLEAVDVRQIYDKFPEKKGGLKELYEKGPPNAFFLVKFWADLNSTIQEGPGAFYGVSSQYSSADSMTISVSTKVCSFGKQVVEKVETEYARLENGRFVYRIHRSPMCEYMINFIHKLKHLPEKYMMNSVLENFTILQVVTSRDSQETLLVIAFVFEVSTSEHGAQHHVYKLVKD

[24] = tested on: NCI-H226; assay: Inhibition of CYR61 gene expression in human NCI-H226 cells at 300 nM incubated for 24 hrs by RT-qPCR analysis; format: functional, cell-based
[25] = tested on: NCI-H226; assay: Inhibition of CYR61 gene expression in human NCI-H226 cells incubated for 24 hrs by RT-qPCR analysis; format: functional, cell-based; conditions: dose 30-300 nM
[26] = biological target: Transcriptional enhancer factor TEF-4 (Homo sapiens) (UniProt Q15562); assay: Inhibition of Myc-tagged TEAD2 (unknown origin) palmitoylation transfected in HEK293 cells at 300 nM incubated for 24 hrs by palmitoylation assay; format: cell-based
Sequence of Transcriptional enhancer factor TEF-4 (Homo sapiens) (Q15562 whole entry): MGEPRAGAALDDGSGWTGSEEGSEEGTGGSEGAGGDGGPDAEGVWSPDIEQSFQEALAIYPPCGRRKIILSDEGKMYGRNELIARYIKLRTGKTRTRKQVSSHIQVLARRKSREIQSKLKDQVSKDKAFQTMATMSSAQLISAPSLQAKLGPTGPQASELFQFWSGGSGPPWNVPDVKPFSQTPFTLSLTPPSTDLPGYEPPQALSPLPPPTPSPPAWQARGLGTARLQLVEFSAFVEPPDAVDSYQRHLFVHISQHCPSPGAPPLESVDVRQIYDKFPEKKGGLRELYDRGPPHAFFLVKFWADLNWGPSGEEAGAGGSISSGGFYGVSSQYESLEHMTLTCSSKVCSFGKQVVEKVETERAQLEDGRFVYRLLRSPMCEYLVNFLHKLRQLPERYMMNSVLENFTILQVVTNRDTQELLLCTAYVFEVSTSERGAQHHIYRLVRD

[27] = tested on: NCI-H226; assay: Antitumor activity against human NCI-H226 cells xenografted in mouse assessed as tumor growth inhibition at 30 mg/kg, po measured after 17 days; format: functional, organism-based; conditions: time 17.0 day
[28] = tested on: NCI-H226; assay: Antitumor activity against human NCI-H226 cells xenografted in mouse assessed as reduction in tumor volume at 10 mg/kg, po administered for 28 days; format: functional, organism-based; conditions: time 28.0 day
[29] = tested on: NCI-H226; assay: as §1; format: functional
[30] = tested on: NCI-H226; assay: as §2; format: functional
[31] = tested on: NCI-H226; assay: Antitumor activity against human NCI-H226 cells xenografted in mouse assessed as tumor growth inhibition at 30 mg/kg, po administered for 28 days; format: functional, organism-based; conditions: time 28.0 day
[32] = tested on: Hippo Pathway/TEAD Luciferase reporter MCF7 cell; assay: Inhibition of palmitoylation site of TEAD (unknown origin) in human Hippo Pathway/TEAD Luciferase reporter MCF7 cells assessed as reduction in transcriptional activation by measuring luciferase activity at 1000 nM incubated for 24 hrs by Promega One-Glo luciferase reagent based assay

IC50 [1]: 1510 nM
SMILES: CCC(=O)N1CCc2ccc(-c3ccc(C(F)(F)F)cc3)cc2C1

IC50 [1]: 0.84 nM
SMILES: C=CC(=O)N1CCc2ccc(-c3ccc(F)cc3)cc2C1
IC50 [5]: 21.6 nM

IC50 [1]: 0.34 nM | remaining at 0.25 h [2]: 75.9% | Cmax [10]: 974 ng/mL | inhibition [14]: Active | inhibition [17]: Active | remaining at 0.5 h [3]: 62.7% | AUC(0-t) at 24 h [18]: 3810 ng·h/mL | remaining at 0.25 h [4]: 95.9% | half-life [19]: 184 min | Tmax [20]: 67.5 min | MRT [21]: 6.08 h | inhibition [23]: Active | remaining at 0.5 h [6]: 79.6% | inhibition [26]: Active
SMILES: C=CC(=O)N1CCc2ccc(-c3ccc(C(F)(F)F)cc3)cc2C1
Activity [7]: Non-toxic | Activity [8]: Non-toxic | Activity [9]: Active | inhibition [11]: Active; Higher Inhibition Observed | inhibition at 0.03 µM [12]: > 50% | Activity [13]: inactive | inhibition [15]: Dose-dependent-effect | Ratio IC50 [16]: >150 | IC50 [5]: 3.34 nM | inhibition at 0.03 µM [22]: > 50% | inhibition [24]: Active; Higher Inhibition Observed | inhibition [25]: Dose-dependent-effect | Activity [27]: Active; Compound Showed Sustain Suppression Without Rebound

IC50 [1]: 1.34 nM | remaining at 0.25 h [2]: 89.2% | Cmax [10]: 1390 ng/mL | inhibition [17]: Active | remaining at 0.5 h [3]: 85.1% | AUC(0-t) at 24 h [18]: 5410 ng·h/mL | remaining at 0.25 h [4]: 98.2% | half-life [19]: 337 min | Tmax [20]: 45 min | MRT [21]: 7.5 h | inhibition [23]: Active | remaining at 0.5 h [6]: 97.7%
SMILES: C=C(F)C(=O)N1CCc2ccc(-c3ccc(C(F)(F)F)cc3)cc2C1
Activity [7]: Non-toxic | Activity [8]: Non-toxic | Activity [28]: Active; Modest Effect Observed | inhibition [11]: Active | inhibition [29]: inactive | Activity [13]: inactive | Ratio IC50 [16]: >20 | IC50 [5]: 30.9 nM | inhibition [30]: inactive | Activity [31]: Active | inhibition [24]: Active

IC50 [1]: 0.88 nM
SMILES: C=CC(=O)N1CCc2ccc(-c3cccc(C(F)(F)F)c3)cc2C1
IC50 [5]: 85.2 nM

IC50 [1]: 52.4 nM
SMILES: CC#CC(=O)N1CCc2ccc(-c3ccc(C(F)(F)F)cc3)cc2C1

IC50 [1]: 4.26 nM
SMILES: C=CC(=O)N1CCc2ccc(-c3ccc(C)cc3)cc2C1
IC50 [5]: 3.03 nM

IC50 [1]: 0.7 nM
SMILES: C=CC(=O)N1CCc2ccc(-c3ccc(OC(F)(F)F)cc3)cc2C1
IC50 [5]: 22.2 nM

IC50 [1]: 0.65 nM
SMILES: CN(C)C/C=C/C(=O)N1CCc2ccc(-c3ccc(C(F)(F)F)cc3)cc2C1
inhibition [32]: Active; Incomplete Inhibition Observed | inhibition [15]: Dose-dependent-effect | inhibition [24]: Active; Minimal Inhibition Observed

The next lines start with the compound.

SMILES: C=CC(=O)Nc1ccc(C)c(Oc2ccc(Cl)cc2)c1
IC50 [1]: 0.61 nM | remaining at 0.25 h [2]: 26.4% | remaining at 0.5 h [3]: 9.7% | remaining at 0.25 h [4]: 77.6% | IC50 [5]: 10.6 nM | remaining at 0.5 h [6]: 63.5%

SMILES: C=CC(=O)N1CCc2ccc(-c3ccc(C(F)(F)F)c(F)c3)cc2C1
IC50 [1]: 0.36 nM | IC50 [5]: 115 nM

SMILES: C=CC(=O)N1CCc2ccc(-c3ccc(C(F)(F)F)cc3Cl)cc2C1
IC50 [1]: 1.04 nM | IC50 [5]: 119 nM

SMILES: C=CC(=O)N1CCc2ccc(-c3ccc(C(F)(F)F)nc3)cc2C1
IC50 [1]: 5.48 nM | IC50 [5]: 391 nM

SMILES: C=CC(=O)N1CCc2ccc(-c3ccc(C(F)(F)F)cn3)cc2C1
IC50 [1]: 4.11 nM | IC50 [5]: 26.6 nM

SMILES: C=CC(=O)N1CCc2ccc(-c3ccccc3)cc2C1
IC50 [1]: 3.15 nM | IC50 [5]: 7.04 nM

SMILES: C=CC(=O)N1CCc2ccc(-c3cccs3)cc2C1
IC50 [1]: 5.36 nM | IC50 [5]: 402 nM

SMILES: C[C@H](NC(=O)c1ccc2c(-c3ccc(C(F)(F)F)cc3)cccc2c1)c1ccccn1
IC50 [1]: 1.9 nM | IC50 [5]: 27.1 nM
